Results from paper PMC6112376, “Comprehensive Analyses and Prioritization of Tox21 10K Chemicals Affecting Mitochondrial Function by in-Depth Mechanistic Studies” (Environmental Health Perspectives, 2018).
Read-outs that look alike come from different tables or passages of the source.

What was measured:
[1] = test system: rat primary hepatocytes; assay: MMP assay in rat primary hepatocytes; details: for IC50: read-out: MMP assays IC50 (µM) Rat Hepatocytes
[2] = test system: HepG2 cells; details: for IC50: read-out: MMP assays IC50 (µM) HepG2
[3] = test system: HepG2 cells; details: cited from earlier work
[4] = rat hepatocytes, mean ± SD of three experiments
[5] = HepG2 cells, single number from one experiment
[6] = read-out: MMP assays IC50 (µM) qHTS-HepG2
[7] = read-out: MMP assays IC50 (µM), qHTS-HepG2

Structure (SMILES)	MMP assays efficacy (%) Rat Hepatocytes [1, 4]	IC50 [1, 4] [µM]	MMP assays efficacy (%) HepG2 [2, 5]	IC50 [2, 5] [µM]	MMP assays efficacy (%) qHTS-HepG2 [3]	IC50 [3, 6] [µM]	MMP assays IC50 (µM) Rat Hepatocytes [1, 4]	MMP assays IC50 (µM) HepG2 [2, 5]	IC50 [3, 7] [µM]	MMP assays IC50 (µM) Rat Hepatocytes [1]	MMP assays IC50 (µM) HepG2 [2]	MMP assays efficacy (%) HepG2 [2]	MMP assays IC50 (µM) qHTS-HepG2 [3]
O=C1c2c(O)ccc(Nc3ccc(CCO)cc3)c2C(=O)c2c([N+](=O)[O-])ccc(O)c21 [C.I. Disperse blue 27]	-72±24%	32.5 ± 10.4	-119%	25.1	-86±8%	2.34 ± 0.87	–	–	–	–	–	–	–
CCc1cc(SCc2sc(-c3ccc(C(F)(F)F)cc3)nc2CN2CCN(c3ccc(OC)cc3)CC2)ccc1OCC(=O)O	-116±28%	23.1 ± 15.6	-105%	31.6	-128±5%	25.3 ± 5.81	–	–	–	–	–	–	–
C[C@H](/C=C/[C@H](C)C(C)(C)O)[C@H]1CC[C@H]2/C(=C/C=C3C[C@@H](O)C[C@H](O)C3)CCC[C@]12C [Paricalcitol]	inactive	–	inactive	–	-69±16%	–	inactive	inactive	8.91 ± 1.56	–	–	–	–
CC(=O)c1ccc2ccc3ccccc3c2c1 [Compound 3-Acetylphenanthrene]	-44±5%	42.2 ± 19.8	-105%	56.2	-105±10%	36.9 ± 13.7	–	–	–	–	–	–	–
CCN(C(=O)N(CC)c1ccccc1)c1ccccc1 [N,Nφ-Diethylcarbanilide]	-58±11%	13.1 ± 16.4	inactive	–	-69±23%	–	–	inactive	21.7 ± 38.2	–	–	–	–
CCCCCCCCCCn1cc[n+](C)c1.F[B-](F)(F)F [1-Decyl-3-methylimidazolium tetrafluoroborate]	-100±10%	16.8 ± 7.73	-104%	7.08	-68±12%	3.87	–	–	–	–	–	–	–
CCC(=O)O[C@]1(C(=O)SCF)[C@H](C)C[C@H]2[C@@H]3C[C@H](F)C4=CC(=O)C=C[C@]4(C)[C@@]3(F)[C@@H](O)C[C@@]21C [Fluticasone propionate]	inactive	–	inactive	–	-58±17%	–	inactive	inactive	9.02 ± 1.71	–	–	–	–
CCC(=O)OCC(=O)[C@@]1(OC(=O)CC)[C@@H](C)C[C@H]2[C@@H]3CCC4=CC(=O)C=C[C@]4(C)[C@@]3(Cl)[C@@H](O)C[C@@]21C [Beclazone]	-89±79%	16.3 ± 20.6	-61%	21.8	-103±9%	23.7 ± 2.74	–	–	–	–	–	–	–
Cc1cc(N)c2cc(NC(=O)Nc3ccc4nc(C)cc(N)c4c3)ccc2n1.Cl.Cl [Aminoquinuride dihydrochloride]	inactive	–	-90%	27.5	-99±7%	25 ± 4.09	–	–	–	–	–	–	–
Nc1cc(Cl)c([N+](=O)[O-])cc1O [Compound 2-Amino-4-chloro-5-nitrophenol]	-47±13%	31.3 ± 8.72	-107%	25.1	-104±19%	21.5 ± 2.48	–	–	–	–	–	–	–
Nc1ccc2cc3ccc(N)cc3nc2c1.Nc1ccc2cc3ccc(N)cc3nc2c1.O=S(=O)(O)O [Proflavin hemisulfate]	-94±11%	11.6 ± 5.45	-95%	3.46	-115±21%	–	–	–	3.22 ± 0.82	–	–	–	–
CCCCC/C(C=O)=C/c1ccccc1 [Amyl cinnamal]	–	–	–	–	inactive	–	–	–	–	inactive	inactive	inactive	inactive
